According to US10597388B2, “Pyridazinone herbicides” (FMC CORPORATION, priority 2014, dated 2020):

Key:
Assay in all cases: Test C greenhouse herbicide test, pre- and postemergence
Format in all cases: in vivo
[1] = test system: barnyardgrass (Echinochloa crus-galli)
Summary of the method: (§1)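 Visual 0–100 injury score (100 = complete control) taken against untreated controls after 13–15 d in greenhouse. Test chemicals, formulated in solvent plus surfactant, applied preemergence to seeds in loam–sand soil or postemergence to 1- to 4-leaf plants (2–18 cm).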

[2] = test system: blackgrass (Alopecurus myosuroides)
Summary of the method: as §1

corn (Zea mays) = test system: corn (Zea mays)
Summary of the method: as §1

[3] = test system: crabgrass, large (large crabgrass, Digitaria sanguinalis)
Summary of the method: as §1

[4] = test system: foxtail, giant (giant foxtail, Setaria faberii); settings: Postemergence
Summary of the method: as §1

[5] = test system: galium (catchweed bedstraw, Galium aparine)
Summary of the method: as §1

[6] = test system: johnsongrass (Sorghum halepense)
Summary of the method: as §1

[7] = test system: nutsedge, yellow (yellow nutsedge, Cyperus esculentus)
Summary of the method: as §1

[8] = test system: ryegrass, Italian (Italian ryegrass, Lolium multiflorum)
Summary of the method: as §1

soybean (Glycine max) = test system: soybean (Glycine max)
Summary of the method: as §1

[9] = test system: velvetleaf (Abutilon theophrasti)
Summary of the method: as §1

[10] = test system: wheat (winter wheat, Triticum aestivum)
Summary of the method: as §1

[11] = Postemergence, 31 g ai/ha, scale 0 to 100 (0 no effect, 100 complete control)
[12] = Postemergence, 125 g ai/ha, scale 0 to 100, 0 is no effect, 100 is complete control
[13] = Postemergence, 250 g ai/ha, scale 0 to 100, 0 no effect, 100 complete control, 13 to 15 d
[14] = Preemergence, 31 g ai/ha, scale 0 to 100, 0 is no effect, 100 is complete control
[15] = Preemergence, 62 g ai/ha, scale 0 to 100, 0 is no effect, 100 is complete control
[16] = Preemergence, 125 g ai/ha, scale 0 to 100, 0 is no effect, 100 is complete control
[17] = Preemergence, 250 g ai/ha, scale 0 to 100, 0 no effect, 100 complete control
[18] = postemergence, 62 g ai/ha, scale 0 to 100, 0 no effect, 100 complete control

In the case of `CCC(=O)Oc1c(C)nn(C)c(=O)c1-c1ccc(F)c2ccccc12` [Compound 113], the “Plant response rating, Barnyardgrass” value [1, 11] is reported as 25, the “Plant response rating, Barnyardgrass” value [1, 12] is reported as 35 and the “Plant response rating, Barnyardgrass” value [1, 13] is reported as 45. The “Plant response rating, Barnyardgrass” value [1, 14] was 10, the “Plant response rating, Barnyardgrass” value [1, 15] was 35 and the “Plant response rating, Barnyardgrass” value [1, 16] was 65. The “Barnyardgrass plant response rating” value [1, 17] was 95, the “Barnyardgrass plant response rating” value [1, 18] was 35 and the “Plant response rating, Blackgrass” value [2, 11] was 15. The “Plant response rating, Blackgrass” value [2, 12] was 45, the “Plant response rating, Blackgrass” value [2, 13] was 60 and the “Plant response rating, Blackgrass” value [2, 14] was 10. The “Plant response rating, Blackgrass” value [2, 15] was 50, the “Plant response rating, Blackgrass” value [2, 16] was 55 and the “Blackgrass plant response rating” value [2, 17] was 60. For the same compound, the “Blackgrass plant response rating” value [2, 18] was 25, the “Plant response rating, Corn” value (corn (Zea mays); [11]) was 5 and the “Plant response rating, Corn” value (corn (Zea mays); [12]) was 10. The “Plant response rating, Corn” value (corn (Zea mays); [13]) was 15, the “Plant response rating, Corn” value (corn (Zea mays); [14]) was 0 and the “Plant response rating, Corn” value (corn (Zea mays); [15]) was 0. For the same compound, the “Plant response rating, Corn” value (corn (Zea mays); [16]) was 20, the “Corn plant response rating” value (corn (Zea mays); [17]) was 35 and the “Corn plant response rating” value (corn (Zea mays); [18]) was 10. The “Plant response rating, Crabgrass, Large” value [3, 11] was 5, the “Plant response rating, Crabgrass, Large” value [3, 12] was 25 and the “Plant response rating, Crabgrass, Large” value [3, 13] was 70. The “Plant response rating, Crabgrass, Large” value [3, 14] was 0, the “Plant response rating, Crabgrass, Large” value [3, 15] was 35 and the “Plant response rating, Crabgrass, Large” value [3, 16] was 75. For the same compound, the “Crabgrass, Large plant response rating” value [3, 17] was 90, the “Crabgrass, Large plant response rating” value [3, 18] was 15 and the “Plant response rating, Foxtail, Giant” value ([4]; 31 g ai/ha, scale 0 to 100 (0 no effect, 100 complete control)) was 20. For the same compound, the “Plant response rating, Foxtail, Giant” value ([4]; 125 g ai/ha, scale 0 to 100, 0 is no effect, 100 is complete control) was 30, the “Plant response rating, Foxtail, Giant” value ([4]; 250 g ai/ha, scale 0 to 100, 0 no effect, 100 complete control, 13 to 15 d) was 70 and the “Plant response rating, Galium” value [5, 11] was 95. The “Plant response rating, Galium” value [5, 12] was 95, the “Plant response rating, Galium” value [5, 13] was 95 and the “Plant response rating, Galium” value [5, 14] was 100. The “Plant response rating, Galium” value [5, 15] was 90, the “Plant response rating, Galium” value [5, 16] was 98 and the “Galium plant response rating” value [5, 17] was 98. For the same compound, the “Plant response rating, Johnsongrass” value [6, 11] was 0, the “Plant response rating, Johnsongrass” value [6, 12] was 10 and the “Plant response rating, Johnsongrass” value [6, 13] was 20. The “Plant response rating, Johnsongrass” value [6, 14] was 0, the “Plant response rating, Johnsongrass” value [6, 15] was 10 and the “Plant response rating, Johnsongrass” value [6, 16] was 20. The “Johnsongrass plant response rating” value [6, 17] was 30, the “Plant response rating, Nutsedge, Yellow” value [7, 11] was 70 and the “Plant response rating, Nutsedge, Yellow” value [7, 12] was 85. For the same compound, the “Plant response rating, Nutsedge, Yellow” value [7, 13] was 95, the “Plant response rating, Nutsedge, Yellow” value [7, 14] was 55 and the “Plant response rating, Nutsedge, Yellow” value [7, 15] was 70. The “Plant response rating, Nutsedge, Yellow” value [7, 16] was 85, the “Nutsedge, Yellow plant response rating” value [7, 17] was 85 and the “Plant response rating, Ryegrass, Italian” value [8, 11] was 90. The “Plant response rating, Ryegrass, Italian” value [8, 12] was 95, the “Plant response rating, Ryegrass, Italian” value [8, 13] was 95 and the “Plant response rating, Ryegrass, Italian” value [8, 14] was 95. For the same compound, the “Plant response rating, Ryegrass, Italian” value [8, 15] was 95, the “Plant response rating, Ryegrass, Italian” value [8, 16] was 90 and the “Ryegrass, Italian plant response rating” value [8, 17] was 95. For the same compound, the “Plant response rating, Soybean” value (soybean (Glycine max); [11]) was 15, the “Plant response rating, Soybean” value (soybean (Glycine max); [12]) was 40 and the “Plant response rating, Soybean” value (soybean (Glycine max); [13]) was 55. For the same compound, the “Plant response rating, Soybean” value (soybean (Glycine max); [14]) was 0, the “Plant response rating, Soybean” value (soybean (Glycine max); [15]) was 45 and the “Plant response rating, Soybean” value (soybean (Glycine max); [16]) was 65. The “Soybean plant response rating” value (soybean (Glycine max); [17]) was 80, the “Plant response rating, Velvetleaf” value [9, 11] was 70 and the “Plant response rating, Velvetleaf” value [9, 12] was 90. The “Plant response rating, Velvetleaf” value [9, 13] was 98, the “Plant response rating, Velvetleaf” value [9, 14] was 60 and the “Plant response rating, Velvetleaf” value [9, 15] was 95. The “Plant response rating, Velvetleaf” value [9, 16] was 98, the “Velvetleaf plant response rating” value [9, 17] was 100 and the “Plant response rating, Wheat” value [10, 11] was 5. The “Plant response rating, Wheat” value [10, 12] was 5, the “Plant response rating, Wheat” value [10, 13] was 15 and the “Plant response rating, Wheat” value [10, 14] was 0. The “Plant response rating, Wheat” value [10, 15] was 30, the “Plant response rating, Wheat” value [10, 16] was 35 and the “Wheat plant response rating” value [10, 17] was 50.
